Reference: patent US20100291196A1, “METHOD OF TREATMENT OF AUTISM SPECTRUM DISORDER WITH LIPOSOMAL REDUCED GLUTATHIONE” (priority 2005, published 2010)

Columns and labels:
[1] = tested on: methionine cycle function; settings: for improvement with known intermediates and support supplements of the methionine cycle: Case 3, supplements taken together in the month before liposomal glutathione; for blood pressure after initiating the therapies / how the patient felt a few days after initiating the therapies: in vivo
Description: The elevation of histamine is also an indicator of decreased methylation function as it is inactivated by histamine-methyl transferase.
During the month prior to evaluation the MM initiated therapy with SAMe, folate, betaine (trimethyl glycine), N-acetylcysteine and B12 by injection and oral glutathione (neat, not in the form of the invention).

[2] = 3 grams by oral ingestion; cited from earlier work
children with autism = settings: cited from earlier work
children = assay: Practical experience and clinical observation of children using methylcobalamin by injection; assay type: in vivo, human
[3] = 800 μg folinic acid and 1000 mg betaine twice daily, 3 months
[4] = after a month of injection therapy
[5] = second intervention, injectable methylcobalamin added to folinic acid and betaine

Molecule | improvement with known intermediates and support supplements of the methionine cycle [1] | blood pressure after initiating the therapies [1] | how the patient felt a few days after initiating the therapies [1] | other results
N[C@@H](CCC(=O)N[C@@H](CS)C(=O)NCC(=O)O)C(=O)O [glutathione, gamma-glutamyl-cysteinyl-glycine] | did not improve | 170/120 | felt worse | plasma glutathione levels [2]: does not elevate
CC(=O)N[C@@H](CS)C(=O)O [N-acetylcysteine] | did not improve | 170/120 | felt worse | 
C[N+](C)(C)CC(=O)O [betaine, trimethyl glycine] |  | 170/120 | felt worse | 
Nc1nc2ncc(CNc3ccc(C(=O)N[C@@H](CCC(=O)O)C(=O)O)cc3)nc2c(=O)[nH]1 [folic acid] | did not improve | 170/120 | felt worse | 
Nc1nc(=O)c2c([nH]1)NCC(CNc1ccc(C(=O)N[C@@H](CCC(=O)O)C(=O)O)cc1)N2C=O (mixture of isomers) [folinic acid] |  |  |  | methionine cycle metabolites versus concentrations in controls (children with autism; [3]): effective in normalizing; total GSH (tGSH) or GSSG concentrations or tGSH:GSSG ratio (children with autism; [3]): improved but did not normalize
C/C1=C2/[N-][C@H]([C@H](CC(N)=O)[C@@]2(C)CCC(=O)NC[C@@H](C)OP(=O)([O-])O[C@H]2[C@@H](O)[C@@H](n3cnc4cc(C)c(C)cc43)O[C@@H]2CO)[C@]2(C)N=C(/C(C)=C3N=C(/C=C4N=C1[C@@H](CCC(N)=O)C\4(C)C)[C@@H](CCC(N)=O)[C@]\3(C)CC(N)=O)[C@@H](CCC(N)=O)[C@]2(C)CC(N)=O.[CH3-].[Co+3] [methylcobalamin] |  |  |  | irritability (children; many children, methylcobalamin by injection): substantially increased irritability; SAH (children; methylcobalamin by itself, preliminary data): can cause an increase; GSSG (children with autism; [4]): decreased; level of total GSH (tGSH) (children with autism; [4]): increased; tGSH:GSSG ratio (glutathione redox profile) (children with autism; [4]): normalization; speech and cognition (children with autism; injection therapy, children with autism): improvement in speech and cognition; concentration of adenosine and GSSG (children with autism; [5]): further decrease; concentrations of methionine, cysteine, tGSH and SAM:SAH and tGSH:GSSG ratios (children with autism; [5]): further increase
C[S+](CC[C@H](N)C(=O)[O-])C[C@H]1O[C@@H](n2cnc3c(N)ncnc32)[C@H](O)[C@@H]1O (stereo partly shown) [SAMe, S-Adenosylmethionine] | did not improve | 170/120 | felt worse | 
cyanocobalamin [B12 (cyanocobalamin)] | did not improve | 170/120 | felt worse | 
